From patent publication US5525627A, “Esters of acyl carnitines with long-chain aliphatic alcohols and pharmaceutical compositions containing same having antimycotic activity” (Sigma-Tau Industrie Farmaceutiche Riunite S.p.A., priority 1992, dated 1996)

Tests used:
[1] = test system: Candida albicans (562); assay: MIC for yeast and yeast-like strains; assay type: cell-based; settings: 48 hours, 35° C., read-out: Minimal Inhibitory Concentration (MIC)
Description: (§1) The following strains were used (the number of strains is in brackets): Candida (13); Criptococcus (2); Saccharormyces (1); Torulopsis (1).
(§2) Yeast Nitrogen Base supplemented with 0.15% asparagine and 1.0% glucose (as carbon source) was the medium utilized in the assays.
(§3) This medium was buffered with 0.165 M 2-(N-morpholino) propane sulfonic acid (MOPS), a non-chelating buffer. […]
(§4) The inoculum was prepared from an overnight broth culture (a 48-hour culture only for Cryptococcus) in Sabouraud broth and appropriately diluted to yield a final suspension containing approximately 5.0×10^6 Colony Forming Units per ml (CFU/ml), when compared to the Mc Farland's standard control (BRAY W. E., Clinical Laboratory Methods, 5th Ed. C. V. MOSBY, St. Louis, Mo, 1957).
(§5) After further diluting (1:50), a […] volume of such fungal suspensions and an equal volume of the substance solutions were distributed into each well of a microtiter plate (96 wells, round bottom). Such a procedure eventually allowed for an "in vitro" antimycotic activity assay utilizing final fungal inocula of approximately 5.0×10^4 CFU/ml.

[2] = test system: Candida albicans (A 54); assay: MIC for yeast and yeast-like strains; assay type: cell-based; settings: 48 hours, 35° C., read-out: Minimal Inhibitory Concentration (MIC)
Description: as §1, §2, §3, §4, §5

[3] = test system: Candida albicans (Ca 2); assay: MIC for yeast and yeast-like strains; assay type: cell-based; settings: 48 hours, 35° C., read-out: Minimal Inhibitory Concentration (MIC)
Description: as §1, §2, §3, §4, §5

[4] = test system: Candida krusei (ISS 1); assay: MIC for yeast and yeast-like strains; assay type: cell-based; settings: Pichia kudriavzevii; 48 hours, 35° C.; read-out: Minimal Inhibitory Concentration (MIC)
Description: as §1, §2, §3, §4, §5

[5] = test system: Candida tropicalis (5705); assay: MIC for yeast and yeast-like strains; assay type: cell-based; settings: 48 hours, 35° C., read-out: Minimal Inhibitory Concentration (MIC)
Description: as §1, §2, §3, §4, §5

[6] = test system: Cryptococcus neoformans (4711); assay: MIC for yeast and yeast-like strains; assay type: cell-based; settings: 48 hours, 35° C., read-out: Minimal Inhibitory Concentration (MIC)
Description: as §1, §2, §3, §4, §5

[7] = test system: Saccharomyces cerevisiae (ATCC 7752); assay: MIC for yeast and yeast-like strains; assay type: cell-based; settings: ATCC7752, 48 hours, 35° C., read-out: Minimal Inhibitory Concentration (MIC)
Description: as §1, §2, §3, §4, §5

[8] = test system: Torulopsis candida (D.S.); assay: MIC for yeast and yeast-like strains; assay type: cell-based; settings: Suzukiozyma candida; 48 hours, 35° C.; read-out: Minimal Inhibitory Concentration (MIC)
Description: as §1, §2, §3, §4, §5

[9] = test system: Candida albicans (PG); assay: MIC and MFC for yeast and yeast-like strains; assay type: cell-based; settings: 48 hours, 35° C., read-out: Minimal Inhibitory Concentration (MIC)
Description: as §1, §2
(§6) This medium was buffered with 0.165 M 2-(N-morpholino) propane sulfonic acid (MOPS), a non-chelating buffer.
(§7) Antimicrob. Agents Cheroother. Aug. 34.8:1542-1545).
as §4, §5
(§8) The minimal fungicidal concentration was evaluated by spot-transferring onto Petri dishes, containing Sabouraud agar, 0.01-ml volumes of all the samples showing no visible fungal growth.

[10] = test system: Candida albicans (ATCC 2091); assay: MIC for yeast and yeast-like strains; assay type: cell-based; settings: ATCC2091, 48 hours, 35° C., read-out: Minimal Inhibitory Concentration (MIC)
Description: as §1, §2, §6, §7, §4, §5

[11] = test system: Candida albicans (ISS 1); assay: MIC for yeast and yeast-like strains; assay type: cell-based; settings: 48 hours, 35° C., read-out: Minimal Inhibitory Concentration (MIC)
Description: as §1, §2, §6, §7, §4, §5

[12] = test system: Candida glabrata (ISS 1); assay: MIC for yeast and yeast-like strains; assay type: cell-based; settings: Nakaseomyces glabratus; 48 hours, 35° C.; read-out: Minimal Inhibitory Concentration (MIC)
Description: as §1, §2, §6, §7, §4, §5

[13] = test system: Candida guilliermondii (ISS 1); assay: MIC for yeast and yeast-like strains; assay type: cell-based; settings: Meyerozyma guilliermondii; 48 hours, 35° C.; read-out: Minimal Inhibitory Concentration (MIC)
Description: as §1, §2, §6, §7, §4, §5

[14] = test system: Candida parapsilosis (ISS 1); assay: MIC for yeast and yeast-like strains; assay type: cell-based; settings: Lodderomyces parapsilosis; 48 hours, 35° C.; read-out: Minimal Inhibitory Concentration (MIC)
Description: as §1, §2, §6, §7, §4, §5

[15] = test system: Candida pseudotropicalis (EC 1); assay: MIC for yeast and yeast-like strains; assay type: cell-based; settings: Kluyveromyces marxianus; 48 hours, 35° C.; read-out: Minimal Inhibitory Concentration (MIC)
Description: as §1, §2, §6, §7, §4, §5

[16] = test system: Candida tropicalis (ISS 1); assay: MIC for yeast and yeast-like strains; assay type: cell-based; settings: 48 hours, 35° C., read-out: Minimal Inhibitory Concentration (MIC)
Description: as §1, §2, §6, §7, §4, §5

[17] = test system: Cryptococcus neoformans (ISS 1); assay: MIC for yeast and yeast-like strains; assay type: cell-based; settings: 48 hours, 35° C., read-out: Minimal Inhibitory Concentration (MIC)
Description: as §1, §2, §6, §7, §4, §5

[18] = test system: yeast-like fungi; assay: MIC / MFC for yeast-like fungi, all strains; assay type: cell-based, Candida, Cryptococcus, Saccharomyces, Torulopsis; settings: versus susceptible strains; read-out: Mean MIC values
Description: as §1, §2, §3, §4, §5, §8

[19] = test system: Aspergillus fumigatus (1/A); assay: MIC for filamentous fungi; assay type: cell-based; settings: read-out: Minimal Inhibitory Concentration (MIC)
Text: (§9) The following strains were used (the number of strains is in brackets): Aspergillus (5); Fusarium (1); Mucor (1); Penicillium (1).
(§10) The tested substances were: ST 712, ST 722, ST 982, ST 983, ST 1000, ST 1001, ST 1032, ST 1033, ST 1034, ST 1036, ST 1037, ST 1038, ST 1050, ST 1051, ST 1052, ST 1053. The assay medium was the same as the one used in the previous study. The conidia from 72-hour cultures in Sabouraud agar, collected by washing with Sabouraud medium and Tween 80 (one drop of Tween per 10 ml of medium), were utilized as inoculum (5.0×10^4 CFU/ml).
(§11) The assay was performed using the same procedure as described for yeast-like fungi.
(§12) Also the evaluation of MIC and MFC was as reported previously.

[20] = test system: Aspergillus fumigatus (2/A); assay: MIC for filamentous fungi; assay type: cell-based; settings: read-out: Minimal Inhibitory Concentration (MIC)
Text: as §9, §10, §11, §12

[21] = test system: Aspergillus fumigatus (ATCC 28212); assay: MIC for filamentous fungi; assay type: cell-based; settings: ATCC28212, read-out: Minimal Inhibitory Concentration (MIC)
Text: as §9, §10, §11, §12

[22] = test system: Aspergillus fumigatus (C/1); assay: MIC for filamentous fungi; assay type: cell-based; settings: read-out: Minimal Inhibitory Concentration (MIC)
Text: as §9, §10, §11, §12

[23] = test system: Aspergillus niger (ATCC 16404); assay: MIC for filamentous fungi; assay type: cell-based; settings: ATCC16404, read-out: Minimal Inhibitory Concentration (MIC)
Text: as §9, §10, §11, §12

[24] = test system: Fusarium sp. (ISS 1); assay: MIC for filamentous fungi; assay type: cell-based; settings: read-out: Minimal Inhibitory Concentration (MIC)
Text: as §9, §10, §11, §12

[25] = test system: Mucor mucedo (ATCC 7941); assay: MIC for filamentous fungi; assay type: cell-based; settings: ATCC7941, read-out: Minimal Inhibitory Concentration (MIC)
Text: as §9, §10, §11, §12

[26] = test system: Penicillium sp. (1302); assay: MIC for filamentous fungi; assay type: cell-based; settings: read-out: Minimal Inhibitory Concentration (MIC)
Text: as §9, §10, §11, §12

[27] = test system: filamentous fungi; assay: MIC / MFC for filamentous fungi, all strains; assay type: cell-based, Aspergillus, Fusarium, Mucor, Penicillium; settings: versus susceptible strains; read-out: Mean MIC values
Text: as §9, §10, §11, §12

What does the source list for `CCCCCCCCCCCCOC(=O)C[C@H](C[N+](C)(C)C)OC(=O)C(C)C` [ST 1038]?
MIC [1]: 3.12 µg/mL; MIC [2]: 3.12 µg/mL; MIC [3]: 1.56 µg/mL; MIC [4]: 3.12 µg/mL; MIC [5]: 3.12 µg/mL; MIC [6]: 1.56 µg/mL; MIC [7]: 6.25 µg/mL; MIC [8]: 6.25 µg/mL; MIC [9]: 6.25 µg/mL; MIC [10]: 3.12 µg/mL; MIC [11]: 6.25 µg/mL; MIC [12]: 6.25 µg/mL; MIC [13]: 6.25 µg/mL; MIC [14]: 6.25 µg/mL; MIC [15]: 6.25 µg/mL; MIC [16]: 3.12 µg/mL; MIC [17]: 3.12 µg/mL; MIC [18]: 4.4 µg/mL; MIC [19]: 12.5 µg/mL; MIC [20]: 12.5 µg/mL; MIC [21]: 12.5 µg/mL; MIC [22]: 6.25 µg/mL; MIC [23]: 12.5 µg/mL; MIC [24]: 6.25 µg/mL; MIC [25]: 25 µg/mL; MIC [26]: 12.5 µg/mL; MIC [27]: 12.5 µg/mL

With `CCCCCCCCCCCCCCCCOC(=O)C[C@H](C[N+](C)(C)C)OC(=O)CC(C)C` [ST 1001] as the compound, how does the MIC [1] read?
Its MIC is 3.12 µg/mL.

What about the MIC [2] of the same compound?
Its MIC is 3.12 µg/mL.

What about the MIC [3] of the same compound?
The MIC was 3.12 µg/mL.

What about the MIC [4] of the same compound?
The MIC was 6.25 µg/mL.

What about the MIC [5] of the same compound?
Its MIC is 6.25 µg/mL.

And the MIC [6]?
The MIC was 1.56 µg/mL.

And the MIC [7]?
The MIC was 6.25 µg/mL.

And the MIC [8]?
The MIC was 6.25 µg/mL.

And the MIC [9]?
Its MIC is 6.25 µg/mL.

And the MIC [10]?
Its MIC is 6.25 µg/mL.

And the MIC [11]?
The MIC was 12.5 µg/mL.

And the MIC [12]?
Its MIC is 6.25 µg/mL.

What about the MIC [13] of the same compound?
Its MIC is 6.25 µg/mL.

And the MIC [14]?
Its MIC is 6.25 µg/mL.

And the MIC [15]?
The MIC was 12.5 µg/mL.

What about the MIC [16] of the same compound?
Its MIC is 12.5 µg/mL.

What about the MIC [17] of the same compound?
The MIC was 3.12 µg/mL.

What about the MIC [18] of the same compound?
The MIC was 6.24 µg/mL.

What about the MIC [19] of the same compound?
Its MIC is 6.25 µg/mL.

And the MIC [20]?
Its MIC is 6.25 µg/mL.

And the MIC [21]?
The MIC was 6.25 µg/mL.

And the MIC [22]?
Its MIC is 6.25 µg/mL.

What about the MIC [23] of the same compound?
Its MIC is 12.5 µg/mL.

And the MIC [24]?
The MIC was 12.5 µg/mL.

And the MIC [25]?
Its MIC is > 100 µg/mL.

And the MIC [26]?
Its MIC is 6.25 µg/mL.

What about the MIC [27] of the same compound?
The MIC was 7.03 µg/mL.
